PubChem BioAssay (NCI)
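Where inhibition never reached the appropriate level, the endpoint shown equals the highest concentration tested. Otherwise, values were interpolated linearly from a five-concentration, 48-hour dose response in 96-well plates. At the GI50, growth is halved. TGI is the concentration that stops growth completely.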

Columns and labels:
Test in all cases: NCI-60 cell line screen, 48 h
COLO 205 colon = test system: COLO 205 colon
BT-549 breast = test system: BT-549 breast
OVCAR-3 ovarian = test system: OVCAR-3 ovarian
HL-60(TB) leukemia = test system: HL-60(TB) leukemia
KM12 colon = test system: KM12 colon
NCI/ADR-RES ovarian = test system: NCI/ADR-RES ovarian
MDA-MB-435 = test system: MDA-MB-435
SNB-19 CNS = test system: SNB-19 CNS
SF-539 CNS = test system: SF-539 CNS
A498 renal = test system: A498 renal

Structure (SMILES): C[N+]1(CCC(=O)c2ccccc2)CCC2CCC(C2)C1 (centres undefined)
- TGI (COLO 205 colon): > 100 µM
- TGI (BT-549 breast): > 100 µM
- TGI (OVCAR-3 ovarian): > 100 µM
- TGI (HL-60(TB) leukemia): > 100 µM
- TGI (KM12 colon): > 100 µM
- TGI (NCI/ADR-RES ovarian): > 100 µM
- TGI (MDA-MB-435): > 100 µM
- TGI (SNB-19 CNS): > 100 µM
- TGI (SF-539 CNS): > 100 µM
- TGI (A498 renal): > 100 µM

Structure (SMILES): CCOC(=O)c1c(-c2cccc(Cl)c2)c(C(=O)OC)c(C)c2sc(C=O)nc12
- TGI (COLO 205 colon): 34.4 µM
- TGI (BT-549 breast): 33.7 µM
- TGI (OVCAR-3 ovarian): 31.3 µM
- TGI (HL-60(TB) leukemia): 44.9 µM
- TGI (KM12 colon): 37.8 µM
- TGI (NCI/ADR-RES ovarian): 68.5 µM
- TGI (MDA-MB-435): 38.7 µM
- TGI (SNB-19 CNS): > 100 µM
- TGI (SF-539 CNS): 35.4 µM

Structure (SMILES): O=C(Nc1ccc(-n2ccc3c(NC(=O)c4ccccc4)nccc32)cc1)Nc1cccc(C(F)(F)F)c1
- GI50 (COLO 205 colon): 6.19 µM
- TGI (COLO 205 colon): 19.6 µM
- GI50 (OVCAR-3 ovarian): 2930 nM
- TGI (OVCAR-3 ovarian): 7.15 µM
- GI50 (HL-60(TB) leukemia): 3.92 µM
- TGI (HL-60(TB) leukemia): 14.2 µM
- GI50 (KM12 colon): 410 nM
- TGI (KM12 colon): 11.3 µM
- GI50 (NCI/ADR-RES ovarian): 10.9 µM
- TGI (NCI/ADR-RES ovarian): 28.7 µM
- GI50 (MDA-MB-435): 4.57 µM
- TGI (MDA-MB-435): 21.3 µM
- GI50 (SNB-19 CNS): 11.1 µM
- TGI (SNB-19 CNS): 26.8 µM
- GI50 (SF-539 CNS): 1750 nM
- TGI (SF-539 CNS): 18.4 µM
- GI50 (A498 renal): 6.39 µM
- TGI (A498 renal): 21 µM

Structure (SMILES): O=C(/C=C1\N=C(c2ccccc2)N(c2nc3c(Cl)cc(Cl)cc3s2)C1=O)/C=C/c1ccccc1
- TGI (COLO 205 colon): > 100 µM
- TGI (BT-549 breast): > 100 µM
- TGI (OVCAR-3 ovarian): > 100 µM
- TGI (HL-60(TB) leukemia): > 100 µM
- TGI (KM12 colon): > 100 µM
- TGI (NCI/ADR-RES ovarian): > 100 µM
- TGI (MDA-MB-435): > 100 µM
- TGI (SNB-19 CNS): > 100 µM
- TGI (A498 renal): > 100 µM

Structure (SMILES): N#Cc1ccccc1C#C/C=C\C#Cc1ccccc1N
- GI50 (COLO 205 colon): 4.8 µM
- TGI (COLO 205 colon): > 100 µM
- GI50 (BT-549 breast): 8.39 µM
- TGI (BT-549 breast): > 28.2 µM
- GI50 (OVCAR-3 ovarian): 165 nM
- TGI (OVCAR-3 ovarian): 2.64 µM
- GI50 (HL-60(TB) leukemia): 4.22 µM
- TGI (HL-60(TB) leukemia): > 100 µM
- GI50 (KM12 colon): 2550 nM
- TGI (KM12 colon): > 51.3 µM
- GI50 (NCI/ADR-RES ovarian): 2.44 µM
- TGI (NCI/ADR-RES ovarian): 29.2 µM
- GI50 (MDA-MB-435): 1.34 µM
- TGI (MDA-MB-435): 3.21 µM
- GI50 (SNB-19 CNS): 7.17 µM
- TGI (SNB-19 CNS): > 100 µM
- GI50 (SF-539 CNS): 4490 nM
- TGI (SF-539 CNS): > 20.2 µM
- GI50 (A498 renal): 34.9 µM
- TGI (A498 renal): 94.1 µM

Structure (SMILES): CC1=C[C@@H](C)C[C@]2(C)CC[C@H](O2)[C@]23CC[C@](CO)(C[C@H](O2)[C@@H]2O[C@@](C)(CC2=O)[C@@H](O)[C@H]2CC[C@@]4(CCC[C@@H](O4)[C@H](C)C(=O)O[C@H]4C[C@H]([C@]5(O)OCC[C@H](C)[C@@H]5O)O[C@H]4C=C1)O2)O3
- TGI (COLO 205 colon): 0.00377 µM
- TGI (BT-549 breast): 0.258 µM
- TGI (OVCAR-3 ovarian): 0.102 µM
- TGI (HL-60(TB) leukemia): 9.73 µM
- TGI (KM12 colon): > 10 µM
- TGI (NCI/ADR-RES ovarian): > 10 µM
- TGI (MDA-MB-435): > 10 µM
- TGI (A498 renal): 0.0156 µM

Structure (SMILES): CN(C)C(=O)OC1=CC2CCC(C1)N2C (centres undefined)
- TGI (COLO 205 colon): > 100 µM
- TGI (BT-549 breast): > 100 µM
- TGI (OVCAR-3 ovarian): > 100 µM
- TGI (KM12 colon): > 100 µM
- TGI (NCI/ADR-RES ovarian): > 100 µM
- TGI (MDA-MB-435): > 100 µM
- TGI (SNB-19 CNS): > 100 µM
- TGI (SF-539 CNS): > 100 µM
- TGI (A498 renal): > 100 µM

Structure (SMILES): CC(=O)Nc1ccc(C(=O)NN2C(=O)C(Cl)C2c2cccc([N+](=O)[O-])c2)cc1 (centres undefined)
- TGI (COLO 205 colon): > 100 µM
- TGI (OVCAR-3 ovarian): > 100 µM
- TGI (HL-60(TB) leukemia): > 100 µM
- TGI (KM12 colon): > 100 µM
- TGI (SNB-19 CNS): > 100 µM
- TGI (SF-539 CNS): > 100 µM

Structure (SMILES): CS(C)(=O)=Nn1c(=O)n2n(c1=O)C1c3ccccc3C2c2ccccc21
- TGI (COLO 205 colon): > 100 µM
- TGI (OVCAR-3 ovarian): > 100 µM
- TGI (HL-60(TB) leukemia): > 100 µM
- TGI (NCI/ADR-RES ovarian): > 100 µM
- TGI (MDA-MB-435): > 100 µM
- TGI (SNB-19 CNS): > 100 µM
- TGI (SF-539 CNS): > 100 µM
- TGI (A498 renal): > 100 µM

Structure (SMILES): COc1ccc(-c2nn(-c3ccc(NC(=O)c4cc(Cl)cc(Cl)c4)cc3)cc2-c2ccncc2)cc1Cl
- GI50 (COLO 205 colon): > 100 µM
- TGI (COLO 205 colon): > 100 µM
- GI50 (OVCAR-3 ovarian): > 100000 nM
- TGI (OVCAR-3 ovarian): > 100 µM
- GI50 (HL-60(TB) leukemia): 3.41 µM
- TGI (HL-60(TB) leukemia): > 100 µM
- GI50 (KM12 colon): 4290 nM
- TGI (KM12 colon): > 100 µM
- GI50 (NCI/ADR-RES ovarian): > 100 µM
- TGI (NCI/ADR-RES ovarian): > 100 µM
- GI50 (MDA-MB-435): > 100 µM
- TGI (MDA-MB-435): > 100 µM
- GI50 (SNB-19 CNS): > 100 µM
- TGI (SNB-19 CNS): > 100 µM
- GI50 (SF-539 CNS): 2000 nM
- TGI (SF-539 CNS): > 100 µM
- GI50 (A498 renal): 3.04 µM
- TGI (A498 renal): > 100 µM

Structure (SMILES): COC(=O)c1cc(NC(=O)c2cc(NC(=O)Cc3c[nH]c4ccccc34)cn2C)cn1C
- TGI (COLO 205 colon): 76.3 µM
- TGI (BT-549 breast): > 100 µM
- TGI (OVCAR-3 ovarian): > 100 µM
- TGI (HL-60(TB) leukemia): 95.4 µM
- TGI (KM12 colon): > 100 µM
- TGI (NCI/ADR-RES ovarian): > 100 µM
- TGI (MDA-MB-435): > 100 µM
- TGI (SNB-19 CNS): 85.7 µM
- TGI (SF-539 CNS): > 100 µM
- TGI (A498 renal): 78.5 µM

Structure (SMILES): Cc1ccc2nc(-c3ccc(NC(=O)c4ccc(N)cc4)c(S(=O)(=O)O)c3)sc2c1
- TGI (COLO 205 colon): > 100 µM
- TGI (BT-549 breast): > 100 µM
- TGI (OVCAR-3 ovarian): > 100 µM
- TGI (HL-60(TB) leukemia): > 100 µM
- TGI (KM12 colon): > 100 µM
- TGI (NCI/ADR-RES ovarian): > 100 µM
- TGI (MDA-MB-435): > 100 µM
- TGI (SNB-19 CNS): > 100 µM
- TGI (A498 renal): > 100 µM

Structure (SMILES): COc1cccc(/C=N/[N-]C(N)=O)c1[O-].[Ni+2].[OH3+]
- TGI (COLO 205 colon): 0.291 µM
- TGI (OVCAR-3 ovarian): 0.596 µM
- GI50 (HL-60(TB) leukemia): 0.111 µM
- TGI (HL-60(TB) leukemia): 0.86 µM
- TGI (KM12 colon): 0.91 µM
- TGI (SNB-19 CNS): 1.99 µM
- TGI (SF-539 CNS): 2.28 µM
- TGI (A498 renal): 3.15 µM

Structure (SMILES): Cc1oc(N)c(S(=O)(=O)c2cc3ccccc3n(O)c2=N)c1C
- TGI (COLO 205 colon): > 100 µM
- TGI (BT-549 breast): > 100 µM
- TGI (OVCAR-3 ovarian): > 100 µM
- TGI (KM12 colon): > 100 µM
- TGI (NCI/ADR-RES ovarian): > 100 µM
- TGI (MDA-MB-435): > 100 µM
- TGI (SNB-19 CNS): > 100 µM
- TGI (SF-539 CNS): > 100 µM
- TGI (A498 renal): > 100 µM

Structure (SMILES): CCOCC(=O)N(C)c1cccc2c3c(n(C)c12)CCCCC3
- TGI (COLO 205 colon): > 100 µM
- TGI (OVCAR-3 ovarian): > 100 µM
- TGI (HL-60(TB) leukemia): > 100 µM
- TGI (KM12 colon): > 100 µM
- TGI (NCI/ADR-RES ovarian): > 100 µM
- TGI (SNB-19 CNS): > 100 µM
- TGI (SF-539 CNS): > 100 µM
- TGI (A498 renal): > 100 µM

Structure (SMILES): Cn1c2[n+](c3nc(N)[nH]c(=O)c31)C1OC(C2)C(O)C1O (centres undefined)
- TGI (COLO 205 colon): > 100 µM
- TGI (OVCAR-3 ovarian): > 100 µM
- TGI (HL-60(TB) leukemia): > 100 µM
- TGI (KM12 colon): > 100 µM
- TGI (SNB-19 CNS): > 100 µM
- TGI (SF-539 CNS): > 100 µM
- TGI (A498 renal): > 100 µM

Structure (SMILES): COc1cc(C2c3cc4c(cc3[C@@H](Nc3ccc(Oc5ccccc5)cc3)C3COC(=O)[C@H]23)OCO4)cc(OC)c1O (some centres undefined)
- TGI (COLO 205 colon): 13 µM
- TGI (OVCAR-3 ovarian): > 100 µM
- TGI (HL-60(TB) leukemia): 2.23 µM
- TGI (KM12 colon): > 100 µM
- TGI (NCI/ADR-RES ovarian): > 100 µM
- TGI (SNB-19 CNS): > 100 µM
- TGI (SF-539 CNS): > 28.2 µM
- TGI (A498 renal): 9.6 µM

Structure (SMILES): O=C(CC(c1ccccc1)C1C(=O)NC(=S)NC1=O)c1ccc([N+](=O)[O-])cc1 (centres undefined)
- TGI (COLO 205 colon): > 100 µM
- TGI (BT-549 breast): > 100 µM
- TGI (OVCAR-3 ovarian): > 100 µM
- TGI (HL-60(TB) leukemia): > 100 µM
- TGI (KM12 colon): > 100 µM
- TGI (NCI/ADR-RES ovarian): > 100 µM
- TGI (MDA-MB-435): > 100 µM
- TGI (SNB-19 CNS): > 100 µM
- TGI (SF-539 CNS): > 100 µM
- TGI (A498 renal): > 100 µM
